{"source": "patent US20050238666A1", "about": "“Methods of enhancing stem cell engraftment” (priority 2003, published 2005)", "key": {"[1]": {"test_system": "hematopoietic progenitor cells", "assay": "Colony assay in methylcellulose (CFU) of transduced bone marrow progenitor cells", "type": "cell-based, mouse", "details": "expression of the transgene in the cells; FIG. 9", "description": "Mouse Low Density Bone Marrow (LDBM) Isolation and Viral Transduction: Whole bone marrow was collected from C57B1/6 animals (Jackson Laboratory, Bar Harbor, Me.), 48 h after treatment with 5-fluorouracil (150 mg/kg of body weight, IP; American Pharmaceutical Partners, Los Angeles, Calif.) and was re-suspended in RPMI medium (Life Technologies, Inc.). Bone marrow cells were obtained from the animals, and low-density, mononuclear bone marrow (LDBM) cells are isolated from fresh bone marrow (BM) by density centrifugation on Histopaque-1083 (Sigma, […].) gradient for 20 min at 1,700 rpm at room temperature. Cells at the interface were collected and washed twice with Roswell Park Memorial Institute (RPMI) Media and then counted on a hemocytometer. […] Cells were subsequently analyzed and sorted for green fluorescence protein (GFP) using a Fluorescence Activated Cell Sorting (FACS) (Becton Dickinson, San Jose, Calif.). […]\nThe transduction efficiency of the cells was tested using the following assay: Colony assay: 2×10^4 cells re-suspended in 4 mL complete methylcellulose (Metho Cult™ GF M3434, Stem Cell Technologies) were plated in 35 mm grided non-tissue culture dishes (Nalge Nunc Int.) (1 mL/dish). The colonies were scored after 10 days incubation in 5% CO2 at 37° C. […]"}, "[2]": {"test_system": "hematopoietic stem cells", "assay": "In vivo transplantation and engraftment study (EGFP+ cells by FACS and CFU)", "parameters": "species or system C57BL/6 mice", "description": "FIG. 2 is a graphical representation of the experimental design showing the design for injecting mice with bone marrow cells. The peripheral blood (PB) cells were tested for EGFP+ cells by FACS analysis and the bone marrow (BM) cells were tested for EGFP+ cells by FACS analysis and by CFU assay.\n4×10^5 cells were injected into C57BL/6 mice (8-10 weeks old). Prior to the transplant, the mice were irradiated with 11.75 Gy in split dose (7 Gy and 4.75 Gy) using a Cs^137 source with a minimum of 3 h between doses. For engraftment studies, 100 μL tail vein blood samples were withdrawn from each transplanted mouse every 4 weeks. Peripheral blood cells were incubated in red blood cell lysis buffer (Pharmingen, San Diego, Calif.) for […] at room temperature. Cells were then washed twice and re-suspended in 1 ml of PBS and 0.2% bovine serum albumin (BSA) (Roche Applied Sciences, Indianapolis, Ind.). The percentages of GFP^+ cells of each sample were analyzed by flow cytometry. Sixteen weeks post transplant bone marrow and spleen were isolated from the experimental animals. Cells isolated from these organs were incubated in red blood cells lysis buffer, re-suspended in PBS, 0.2% BSA and analyzed by flow cytometry, as described above.\nThe ability of hematopoietic progenitor cells to form colonies was analyzed in the presence of various transgenes expressing normal and mutated forms of GTPases. […]"}}, "data": [{"substance": "Cdc42N17: dominant negative Cdc42 cDNA cloned into a murine stem cell virus-based bicistronic EGFP vector", "values": [{"measurement": "ability of hematopoietic progenitor cells to form colonies", "setting": "[1]", "result": "not affected"}]}, {"substance": "RhoAN19: dominant negative mouse RhoA protein with threonine to asparagine point mutation at position 19, expressed from retroviral vector", "values": [{"measurement": "ability of hematopoietic progenitor cells to form colonies", "setting": "[1]", "result": "not affected"}, {"measurement": "engraftment: EGFP+ peripheral blood cells in transplanted animals", "setting": "[2]; 3, 7, 11 and 16 weeks post transplant, normalized to control cells at 3 weeks, FIG. 6", "result": "advantageous"}, {"measurement": "stem cell (HSC) engraftment", "setting": "[2]; peripheral blood, bone marrow, spleen, CFU, secondary transplant, FIGS. 6, 8, 9 and 10", "result": "advantageous"}]}]}
